Tests used:
[1] = test system: B16 melanoma lung metastases; details: cited from earlier work
[2] = test system: eIF4E phosphorylation in normal mouse tissues and xenografted tumors; details: after oral administration; cited from earlier work
HCT116 xenograft = HCT116 xenograft models; cited from earlier work
[3] = test system: phosphorylation of eIF4E at ser209 in MV4.11 cell line; experiment: MNK cellular activity phospho-eIF4E detection assay (Alphascreen Surefire); type: cell-based; details: Homo sapiens; MV4.11 cell line, phospho-eIF4E (ser209) Alphascreen Surefire; read-out: P(IC50) elF4E (converted)
In short: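 AlphaScreen SureFire sandwich-immunoassay readout of phospho-eIF4E Ser209 in lysed MV4.11 cells; acceptor then donor beads, each 1.5 hr at room temperature. Signal normalised to untreated DMSO-only controls; duplicate curves, values averaged over at least 2 independent experiments.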

Full-length human MNK1 = target: T1, Full-length human MNK1 (Homo sapiens, UniProt Q9BUB5, T385D); experiment: MNK1 biochemical IC50 assay (Caliper Mobility Shift Assay); details: read-out: P(IC50) MNK1 (converted)
T1 construct: GST (N); purchased Carna Biosciences 02-145; host or cells: baculovirus expression system

Full-length human MNK2 = target: T2, Full-length human MNK2 (Homo sapiens, UniProt Q9HBH9, T379D); experiment: MNK2 biochemical IC50 assay (Caliper Mobility Shift Assay); details: read-out: P(IC50) MNK2 (converted)
T2 construct: GST (N); purchased Carna Biosciences 02-146; host or cells: baculovirus expression system

keratinocytes = details: cited from earlier work
[4] = test system: monocytic cell line THP-1; details: cited from earlier work

T1 sequence (Q9BUB5 1-424 isoform Q9BUB5-2 T344D): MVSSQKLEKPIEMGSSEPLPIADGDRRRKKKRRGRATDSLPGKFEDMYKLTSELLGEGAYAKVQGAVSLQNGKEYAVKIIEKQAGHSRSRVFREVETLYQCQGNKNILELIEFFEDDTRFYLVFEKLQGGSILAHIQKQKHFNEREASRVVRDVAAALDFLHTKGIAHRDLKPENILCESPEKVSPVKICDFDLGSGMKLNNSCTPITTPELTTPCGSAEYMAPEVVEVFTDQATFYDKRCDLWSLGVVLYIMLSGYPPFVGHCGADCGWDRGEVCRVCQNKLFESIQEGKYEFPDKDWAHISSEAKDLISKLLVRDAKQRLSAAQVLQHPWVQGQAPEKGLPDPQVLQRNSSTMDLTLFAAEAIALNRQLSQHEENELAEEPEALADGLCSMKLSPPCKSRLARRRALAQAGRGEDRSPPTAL
T2 sequence (Q9HBH9 whole entry T379D): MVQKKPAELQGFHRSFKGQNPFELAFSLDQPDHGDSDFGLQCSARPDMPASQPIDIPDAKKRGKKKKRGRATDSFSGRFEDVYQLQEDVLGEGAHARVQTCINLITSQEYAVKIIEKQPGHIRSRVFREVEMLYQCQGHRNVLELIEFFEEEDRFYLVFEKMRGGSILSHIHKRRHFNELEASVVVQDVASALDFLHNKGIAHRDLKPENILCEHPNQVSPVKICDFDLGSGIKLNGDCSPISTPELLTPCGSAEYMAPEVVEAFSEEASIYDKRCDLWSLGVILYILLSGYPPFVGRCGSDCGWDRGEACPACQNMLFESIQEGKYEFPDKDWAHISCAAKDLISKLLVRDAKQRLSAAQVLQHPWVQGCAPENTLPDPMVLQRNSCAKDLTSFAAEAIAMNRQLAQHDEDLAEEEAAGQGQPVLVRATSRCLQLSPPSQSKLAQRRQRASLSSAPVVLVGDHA

SMILES	IC50 [3] [nM]	IC50 (Full-length human MNK1) [nM]	IC50 (Full-length human MNK2) [nM]	further results
CC(=O)C1=C(O)C=C2Oc3c(C(N)=O)c(O)cc(O)c3[C@]2(C)C1=O [cercosporamide]				outgrowth of lung metastases [1]: suppressing the outgrowth; time to effective block of eIF4E phosphorylation [2]: ≤ 30 min; tumor growth (HCT116 xenograft): reducing tumor growth
CC1(CCO)CN(c2ncnc3sc(C(=O)NC4CCOCC4)nc23)c2ccccc21 (stereo not drawn) [Example 113, 7-[3-(2-hydroxyethyl)-3-methyl-indolin-1-yl]-N-tetrahydropyran-4-yl-thiazolo[5,4-d]pyrimidine-2-carboxamide]	39.8	39.8	39.8	
CN1CCN(CCC2CN(c3ncnc4sc(C(=O)NC5CCOCC5)nc34)c3ccccc32)CC1 (stereo not drawn) [Example 155, 7-[3-[2-(4-methylpiperazin-1-yl)ethyl]indolin-1-yl]-N-tetrahydropyran-4-yl-thiazolo[5,4-d]pyrimidine-2-carboxamide]	50.1	126	79.4	
CC(C)Oc1cc(F)ccc1Nc1ncnc2sc(C(=O)NCCCN3CCCC3)nc12 [Example 13, 7-(4-fluoro-2-isopropoxy-anilino)-N-(3-pyrrolidin-1-ylpropyl)thiazolo[5,4-d]pyrimidine-2-carboxamide]	39.8	50.1	39.8	
O=C(NC1CCOCC1)c1nc2c(N3CC4(CC4)c4cc(F)ccc43)ncnc2s1 [Example 107, 7-(5′-fluorospiro[cyclopropane-1,3′-indoline]-1′-yl)-N-tetrahydropyran-4-yl-thiazolo[5,4-d]pyrimidine-2-carboxamide]	2	1.58	3.16	
Nc1ncnc2n[nH]c(Nc3ccc(F)cc3)c12 [CGP57380]				TNF-production (keratinocytes): reduced TNF-production; expression of IL-1β and IL-6 (keratinocytes): decreased expression; block of release of IL-1β and IL-8 induced by Shiga toxin [4]: 73-96%
CC1CN(c2ncnc3sc(C(=O)NC4CCOCC4)nc23)c2ccccc21 (stereo not drawn) [Example 125, 7-(3-Methylindolin-1-yl)-N-tetrahydropyran-4-yl-thiazolo[5,4-d]pyrimidine-2-carboxamide]	3.98	3.16	3.98	
CC(C)Oc1cc(F)ccc1Nc1ncnc2sc(C(=O)NCCCO)nc12 [Example 8, 7-(4-fluoro-2-isopropoxy-anilino)-N-(3-hydroxypropyl)thiazolo[5,4-d]pyrimidine-2-carboxamide]	63.1	50.1	50.1	
CNCC1CN(c2ncnc3sc(C(=O)NC4CCOCC4)nc23)c2ccccc21 (stereo not drawn) [Example 120, 7-[3-(Methylaminomethyl)indolin-1-yl]-N-tetrahydropyran-4-yl-thiazolo[5,4-d]pyrimidine-2-carboxamide]	126	50.1	31.6	
OCc1nc2c(N3CCc4cc(F)ccc43)ncnc2s1 [Example 81, [7-(5-Fluoroindolin-1-yl)thiazolo[5,4-d]pyrimidin-2-yl]methanol]	100	39.8	20	
Fc1ccc2c(c1)CCN2c1ncnc2scnc12 [Example 171, 7-(5-Fluoroindolin-1-yl)thiazolo[5,4-d]pyrimidine]	251	79.4	63.1	
CN1CCN(c2nc3c(N4CCc5cc(F)ccc54)ncnc3s2)CC1 [Example 88, 7-(5-fluoroindolin-1-yl)-2-(4-methylpiperazin-1-yl)thiazolo[5,4-d]pyrimidine]	251	79.4	50.1	
CN(C)CCCNC(=O)c1nc2c(N3CCc4cccc(F)c43)ncnc2s1 [Example 92, N-[3-(dimethylamino)propyl]-7-(7-fluoroindolin-1-yl)thiazolo[5,4-d]pyrimidine-2-carboxamide]	251	158	126	
CN(C)CCCOc1nc2c(N3CCc4cc(F)ccc43)ncnc2s1 [Example 89, 3-((7-(5-Fluoroindolin-1-yl)thiazolo[5,4-d]pyrimidin-2-yl)oxy)-N,N-dimethylpropan-1-amine]	200	39.8	63.1	
O=C(NC1CCOCC1)c1nc2c(N3CC4(CCOCC4)c4ccccc43)ncnc2s1 [Example 108, 7-spiro[indoline-3,4′-tetrahydropyran]-1-yl-N-tetrahydropyran-4-yl-thiazolo[5,4-d]pyrimidine-2-carboxamide]	31.6	63.1	39.8	
CC1(C)CN(c2ncnc3sc(C(=O)NCCCN4CCCC4)nc23)c2ccccc21 [Example 160]	7.94	6.31	6.31	

SMILES	IC50 [3] [nM]	IC50 (Full-length human MNK1) [nM]	IC50 (Full-length human MNK2) [nM]	further results
O=C(NC1COC1)c1nc2c(N3CCc4ccccc43)ncnc2s1 [Example 100, 7-indolin-1-yl-N-(oxetan-3-yl)thiazolo[5,4-d]pyrimidine-2-carboxamide]	15.8	25.1	20	
O=C(NCC1CCNCC1)c1nc2c(N3c4ccccc4C[C@@H]3CO)ncnc2s1 [Example 138]	200	398	316	
O=C(NC1CCOCC1)c1nc2c(N3CCc4ccccc43)ncnc2s1 [Example 106, 7-Indolin-1-yl-N-tetrahydropyran-4-yl-thiazolo[5,4-d]pyrimidine-2-carboxamide]	20	12.6	7.94	
CN(C)CCC1CN(c2ncnc3sc(C(=O)NC4CCOCC4)nc23)c2ccccc21 (stereo not drawn) [Example 152, 7-[3-[2-(dimethylamino)ethyl]-indolin-1-yl]-N-tetrahydropyran-4-yl-thiazolo[5,4-d]pyrimidine-2-carboxamide]	50.1	100	79.4	
O=C(NCC1CCNCC1)c1nc2c(N3CC(CCO)c4ccccc43)ncnc2s1 (stereo not drawn) [Example 136]	6.31	7.94	5.01	
CNCCCNC(=O)c1nc2c(N3c4ccccc4C[C@H]3C)ncnc2s1 [Example 128, N-[3-(methylamino)propyl]-7-[(2R)-2-methylindolin-1-yl]thiazolo[5,4-d]pyrimidine-2-carboxamide]	79.4	20	12.6	
O=C(NC1CCOC1)c1nc2c(N3CCc4cc(F)ccc43)ncnc2s1 (stereo not drawn) [Example 77, 7-(5-fluoroindolin-1-yl)-N-tetrahydrofuran-3-yl-thiazolo[5,4-d]pyrimidine-2-carboxamide]	3.98	2	2	
COc1ccc2c(c1)CCN2c1ncnc2sc(C(=O)NCC3CCNCC3)nc12 [Example 63, 7-(5-methoxyindolin-1-yl)-N-(4-piperidylmethyl)thiazolo[5,4-d]pyrimidine-2-carboxamide]	39.8	79.4	63.1	
CN(C)CCC1CN(c2ncnc3sc(C(=O)NC4CCOCC4)nc23)c2ccc(F)cc21 (stereo not drawn) [Example 148, 7-[3-[2-(dimethyl-amino)ethyl]-5-fluoro-indolin-1-yl]-N-tetrahydro-pyran-4-yl-thiazolo[5,4-d]pyrimidine-2-carboxamide]	63.1	50.1	63.1	
O=C(NCC1CCNCC1)c1nc2c(Nc3ccc(F)cc3OC3CCCC3)ncnc2s1 [Example 51, 7-[2-(cyclopentoxy)-4-fluoro-anilino]-N-(4-piperidylmethyl)thiazolo[5,4-d]pyrimidine-2-carboxamide]	126	126	100	
CC(C)Oc1cc(F)ccc1Nc1ncnc2sc(C(=O)N3CC4(CNC4)C3)nc12 [Example 7, 2,6-diazaspiro[3.3]heptan-2-yl-[7-(4-fluoro-2-isopropoxy-anilino)thiazolo[5,4-d]pyrimidin-2-yl]methanone]	316	251	251	
CC(C)Oc1c(F)cccc1Nc1ncnc2sc(C(=O)NCCCN(C)C)nc12 [Example 18, N-[3-(dimethylamino)propyl]-7-(3-fluoro-2-isopropoxy-anilino)thiazolo[5,4-d]pyrimidine-2-carboxamide]	39.8	50.1	50.1	
CC(C)Oc1cc(F)ccc1Nc1ncnc2sc(C(=O)NCCC(=O)O)nc12 [Example 14, 3-[[7-(4-fluoro-2-isopropoxy-anilino)thiazolo[5,4-d]pyrimidine-2-carbonyl]amino]propanoic acid]	398	158	79.4	
NCCC1CN(c2ncnc3sc(C(=O)NC4CCOCC4)nc23)c2ccccc21 (stereo not drawn) [Example 111, 7-[3-(2-aminoethyl)indolin-1-yl]-N-tetrahydropyran-4-yl-thiazolo[5,4-d]pyrimidine-2-carboxamide]	63.1	5.01	6.31	
CC(C)[C@@H](CO)NC(=O)c1nc2c(N3CCc4ccccc43)ncnc2s1 [Example 101, N-[(1S)-1-(hydroxymethyl)-2-methyl-propyl]-7-indolin-1-yl-thiazolo[5,4-d]pyrimidine-2-carboxamide]	31.6	10	12.6	

From patent publication US10669284B2, “Fused thiazolopyrimidine derivatives as MNKS inhibitors” (LIFEARC, priority 2015, dated 2020)
